Reference: ChEMBL document CHEMBL4014322, “Atropisomerism and Conformational Equilibria: Impact on PI3Kδ Inhibition of 2-((6-Amino-9H-purin-9-yl)methyl)-5-methyl-3-(o-tolyl)quinazolin-4(3H)-one (IC87114) and Its Conformationally Restricted Analogs” (J Med Chem, 2017)
pIC50, pKi: −log10 of the molar value.

Experiments:
[1] = target: T1, Phosphatidylinositol 4,5-bisphosphate 3-kinase catalytic subunit delta isoform (Homo sapiens, UniProt O00329)
T1 sequence (O00329 whole entry): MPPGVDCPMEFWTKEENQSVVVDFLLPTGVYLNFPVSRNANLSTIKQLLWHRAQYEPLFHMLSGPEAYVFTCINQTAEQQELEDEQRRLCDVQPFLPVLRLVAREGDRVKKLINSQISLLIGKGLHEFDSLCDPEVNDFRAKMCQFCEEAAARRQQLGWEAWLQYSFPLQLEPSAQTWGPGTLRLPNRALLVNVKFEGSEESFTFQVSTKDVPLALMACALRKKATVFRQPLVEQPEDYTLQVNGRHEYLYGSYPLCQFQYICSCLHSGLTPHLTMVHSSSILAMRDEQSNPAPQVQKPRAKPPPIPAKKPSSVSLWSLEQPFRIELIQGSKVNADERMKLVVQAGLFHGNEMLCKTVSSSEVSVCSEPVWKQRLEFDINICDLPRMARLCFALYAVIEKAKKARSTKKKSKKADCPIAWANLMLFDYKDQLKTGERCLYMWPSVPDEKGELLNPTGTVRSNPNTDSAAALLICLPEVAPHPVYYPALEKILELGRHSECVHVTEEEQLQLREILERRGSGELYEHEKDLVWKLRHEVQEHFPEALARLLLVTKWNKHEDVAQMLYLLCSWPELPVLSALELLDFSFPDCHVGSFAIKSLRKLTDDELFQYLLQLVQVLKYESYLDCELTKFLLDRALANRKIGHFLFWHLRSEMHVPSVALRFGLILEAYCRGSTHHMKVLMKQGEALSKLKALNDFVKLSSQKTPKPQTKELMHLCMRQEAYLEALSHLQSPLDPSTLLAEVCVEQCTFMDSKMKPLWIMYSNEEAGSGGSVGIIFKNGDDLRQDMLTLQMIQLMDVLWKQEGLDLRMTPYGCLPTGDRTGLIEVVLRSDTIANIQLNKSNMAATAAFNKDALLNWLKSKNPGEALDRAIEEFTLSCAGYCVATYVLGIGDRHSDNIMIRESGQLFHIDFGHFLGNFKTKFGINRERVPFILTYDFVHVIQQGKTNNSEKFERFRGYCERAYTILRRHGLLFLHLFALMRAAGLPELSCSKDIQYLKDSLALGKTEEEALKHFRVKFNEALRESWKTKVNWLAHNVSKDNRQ
Description: Inhibition of PI3Kdelta in human PBMC assessed as reduction in anti-human CD28 antibody stimulated IL-6 secretion levels after 72 hrs by ELISA

[2] = target: PI3-kinase p110-delta/p85-alpha (Homo sapiens, UniProt O00329); assay: Inhibition of human recombinant full length N-terminal His6-tagged PI3K p110delta/p85alpha expressed in baculovirus infected Sf9 insect cells using PI:PS as substrate after 60 mins by ADP-Glo assay
Sequence of PI3-kinase p110-delta/p85-alpha (P27986 whole entry, one chain of several): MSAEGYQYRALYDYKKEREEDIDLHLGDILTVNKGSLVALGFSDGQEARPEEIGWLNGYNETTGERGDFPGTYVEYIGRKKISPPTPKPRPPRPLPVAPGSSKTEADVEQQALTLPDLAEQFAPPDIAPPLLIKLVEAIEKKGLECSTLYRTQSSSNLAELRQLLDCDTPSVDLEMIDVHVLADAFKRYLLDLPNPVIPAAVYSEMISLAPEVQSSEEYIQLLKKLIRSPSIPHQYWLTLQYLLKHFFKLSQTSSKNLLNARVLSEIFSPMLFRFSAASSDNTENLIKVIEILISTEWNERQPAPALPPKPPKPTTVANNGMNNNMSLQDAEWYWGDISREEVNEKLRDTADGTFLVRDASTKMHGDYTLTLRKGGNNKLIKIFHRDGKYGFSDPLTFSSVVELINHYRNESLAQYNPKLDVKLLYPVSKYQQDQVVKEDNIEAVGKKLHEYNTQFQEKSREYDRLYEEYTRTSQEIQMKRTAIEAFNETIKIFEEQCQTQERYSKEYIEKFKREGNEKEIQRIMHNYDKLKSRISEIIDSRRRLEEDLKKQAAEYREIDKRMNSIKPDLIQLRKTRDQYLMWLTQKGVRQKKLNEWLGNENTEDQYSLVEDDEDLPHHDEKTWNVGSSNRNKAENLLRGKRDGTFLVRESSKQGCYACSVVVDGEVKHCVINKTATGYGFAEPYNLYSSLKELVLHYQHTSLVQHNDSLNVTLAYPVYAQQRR

SMILES | pIC50 [1] | pKi [2]
Cc1cccc2nc(Cn3cnc4c(N)ncnc43)n(-c3ccccc3)c(=O)c12 | 7.30 | 7.60
Cc1ccccc1-n1c([C@H](C)n2cnc3c(N)ncnc32)nc2cccc(C)c2c1=O (stereo in doubt; form 1) | 8.20 | 8.50
Cc1ccccc1-n1c([C@@H](C)n2cnc3c(N)ncnc32)nc2cccc(C)c2c1=O (stereo in doubt; form 1) | – | 6.90
Cc1ccccc1-n1c([C@H](C)n2cnc3c(N)ncnc32)nc2cccc(C)c2c1=O (stereo in doubt; form 2) | 8.90 | 8.80
Cc1ccccc1-n1c([C@@H](C)n2cnc3c(N)ncnc32)nc2cccc(C)c2c1=O (stereo in doubt; form 2) | – | 7.90
